In ChEMBL document CHEMBL4304812, “Synthesis and Bioactivity of the Alanyl Phosphonamidate Stereoisomers Derived from a Butyrophilin Ligand” (ACS Med Chem Lett, 2019):

Assays:
[1] = Stability in 50% human plasma at 100 uM measured for 24 hrs by LCMS analysis; assay type: ADME, cell-free
[2] = target: T1, Butyrophilin subfamily 3 member A1 (Homo sapiens, UniProt O00481); assay: Activation of butyrophilin 3A1 in human K562 cells assessed as interferon-gamma production pretreated for 15 mins followed by HMBPP-treated Vgamma9Vdelta2 T cells addition and measured after 20 hrs by ELISA; assay type: cell-based
[3] = target: T1, Butyrophilin subfamily 3 member A1; assay: Activation of butyrophilin 3A1 in human K562 cells assessed as interferon-gamma production pretreated for 60 mins followed by HMBPP-treated Vgamma9Vdelta2 T cells addition and measured after 20 hrs by ELISA; assay type: cell-based
[4] = target: T1, Butyrophilin subfamily 3 member A1; assay: Activation of butyrophilin 3A1 in human K562 cells assessed as interferon-gamma production pretreated for 240 mins followed by HMBPP-treated Vgamma9Vdelta2 T cells addition and measured after 20 hrs by ELISA; assay type: cell-based
[5] = system: PBMC; assay: Activation of cell proliferation in human PBMC incubated for 72 hrs by Cell Quanti Blue reagent based assay; assay type: functional

T1 sequence (O00481 whole entry): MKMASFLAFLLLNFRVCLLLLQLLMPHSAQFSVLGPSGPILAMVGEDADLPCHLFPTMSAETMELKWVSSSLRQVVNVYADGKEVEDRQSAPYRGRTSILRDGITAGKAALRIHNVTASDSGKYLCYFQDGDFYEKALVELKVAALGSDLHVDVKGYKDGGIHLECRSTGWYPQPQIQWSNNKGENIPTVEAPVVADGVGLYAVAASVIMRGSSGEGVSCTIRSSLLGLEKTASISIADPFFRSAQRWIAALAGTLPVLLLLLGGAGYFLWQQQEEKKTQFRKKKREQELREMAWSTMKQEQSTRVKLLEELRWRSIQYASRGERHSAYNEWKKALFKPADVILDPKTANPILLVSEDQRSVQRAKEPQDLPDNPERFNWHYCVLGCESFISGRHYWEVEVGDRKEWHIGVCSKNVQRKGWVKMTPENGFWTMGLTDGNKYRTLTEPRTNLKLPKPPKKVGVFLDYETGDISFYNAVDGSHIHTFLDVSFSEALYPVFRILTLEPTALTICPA

For `C/C(=C\CCP(=O)(OCOC(=O)C(C)(C)C)OCOC(=O)C(C)(C)C)CO`, the Stability [1] was “Stable”.
Compound `C/C(=C\CCP(=O)(O)OP(=O)(O)O)CO` has an EC50 [2] of 7600 nM, an EC50 [3] of 1200 nM and an EC50 [4] of 280 nM.
In the case of `C/C(=C\CCP(=O)(O)O)CO`, the EC50 [5] is reported as 4000 nM.
Work on `C/C(=C\COP(=O)(O)OP(=O)(O)O)CO` yielded an EC50 [5] of 0.5 nM.
With `C/C(=C\CCP(=O)(OCOC(=O)C(C)(C)C)Oc1ccccc1)CO` (configuration not stated) the EC50 [5] was 14 nM.
With `CCOC(=O)[C@@H](C)N[P@](=O)(CC/C=C(\C)CO)Oc1ccccc1` the Stability [1] was “Stable”, the EC50 [2] was 6000 nM and the EC50 [3] was 2000 nM. It also gave an EC50 [4] of 520 nM.
For `CCOC(=O)[C@H](C)N[P@](=O)(CC/C=C(\C)CO)Oc1ccccc1`, the Stability [1] was “Stable”, the EC50 [2] was 460 nM and the EC50 [3] was 160 nM. The EC50 [4] was 43 nM and the EC50 [5] was 0.43 nM.
Compound `C/C(=C\CCP(=O)(OCOC(=O)C(C)(C)C)Oc1cccc2ccccc12)CO` (configuration not stated) has an EC50 [5] of 0.79 nM.
For `CCOC(=O)[C@H](C)N[P@@](=O)(CC/C=C(\C)CO)Oc1ccccc1`, the Stability [1] was “Stable”, the EC50 [2] was 200 nM and the EC50 [3] was 79 nM. The EC50 [4] was 21 nM and the EC50 [5] was 0.28 nM.
With `CCOC(=O)[C@@H](C)N[P@@](=O)(CC/C=C(\C)CO)Oc1ccccc1` the Stability [1] was “Stable”, the EC50 [2] was 4600 nM and the EC50 [3] was 1500 nM. It also gave an EC50 [4] of 430 nM.
`CCOC(=O)CNP(=O)(CC/C=C(\C)CO)Oc1ccccc1` (racemic) gave an EC50 [2] of 1500 nM, an EC50 [3] of 230 nM and an EC50 [4] of 51 nM.
With `O=P(O)(O)C(O)(Cn1ccnc1)P(=O)(O)O` [ZOLEDRONIC ACID] the EC50 [2] was > 100000 nM, the EC50 [3] was 79000 nM and the EC50 [4] was 23000 nM.
